One experiment concerns the target T1, human TLR9 (Homo sapiens, UniProt Q9NR96).
T1 construct: host or cells: HEK-Blue cells
T1 sequence (Q9NR96 26-1032): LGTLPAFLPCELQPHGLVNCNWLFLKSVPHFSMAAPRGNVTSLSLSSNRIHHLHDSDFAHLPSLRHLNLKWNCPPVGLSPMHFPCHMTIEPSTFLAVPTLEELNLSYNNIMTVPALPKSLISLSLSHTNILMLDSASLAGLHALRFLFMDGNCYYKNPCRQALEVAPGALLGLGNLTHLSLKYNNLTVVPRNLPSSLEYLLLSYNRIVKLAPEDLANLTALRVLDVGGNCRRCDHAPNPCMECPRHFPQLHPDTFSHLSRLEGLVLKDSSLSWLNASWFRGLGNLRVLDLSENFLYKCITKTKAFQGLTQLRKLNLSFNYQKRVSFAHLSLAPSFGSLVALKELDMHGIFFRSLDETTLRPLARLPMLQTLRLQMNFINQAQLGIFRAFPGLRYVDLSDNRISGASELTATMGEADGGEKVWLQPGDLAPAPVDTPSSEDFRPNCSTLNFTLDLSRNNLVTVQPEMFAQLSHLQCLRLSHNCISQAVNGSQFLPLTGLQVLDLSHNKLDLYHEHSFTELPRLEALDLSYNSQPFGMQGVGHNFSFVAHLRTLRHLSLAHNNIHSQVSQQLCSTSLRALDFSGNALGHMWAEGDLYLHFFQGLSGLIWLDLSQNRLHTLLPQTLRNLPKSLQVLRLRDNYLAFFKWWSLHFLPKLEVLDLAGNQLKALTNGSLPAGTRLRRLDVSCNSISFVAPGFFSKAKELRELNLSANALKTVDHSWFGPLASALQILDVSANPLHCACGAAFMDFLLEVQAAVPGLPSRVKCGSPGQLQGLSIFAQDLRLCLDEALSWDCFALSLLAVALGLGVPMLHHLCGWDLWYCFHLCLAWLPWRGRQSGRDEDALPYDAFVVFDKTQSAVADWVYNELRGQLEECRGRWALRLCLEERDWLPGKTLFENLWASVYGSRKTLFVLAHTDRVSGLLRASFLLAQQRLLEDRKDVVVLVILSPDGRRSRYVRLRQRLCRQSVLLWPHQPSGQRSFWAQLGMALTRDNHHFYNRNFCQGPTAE
Description: TLR9 inhibition reporter assay (HEK-Blue cells, SEAP reporter, ODN2006 stimulation). Type of experiment: cell-based. The following applies: HEK-Blue cells overexpressing human TLR9, ODN2006 5 nM. Put shortly:
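Human TLR7/8/9 HEK-Blue reporter lines; dose range 0.05 nM–50 μM; 30 min RT preincubation; stimulus gardiquimod 7.5 μM / R848 15.9 μM / ODN2006 5 nM respectively; 22 h, 37 °C; SEAP detected colorimetrically.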
On the technique in general: In a reporter assay the amount or activity of a reporter protein is the signal.

Another experiment has as its target T2, human TLR7 (Homo sapiens, UniProt Q9NYK1).
T2 construct: host or cells: HEK-Blue cells
T2 sequence (Q9NYK1 27-1049): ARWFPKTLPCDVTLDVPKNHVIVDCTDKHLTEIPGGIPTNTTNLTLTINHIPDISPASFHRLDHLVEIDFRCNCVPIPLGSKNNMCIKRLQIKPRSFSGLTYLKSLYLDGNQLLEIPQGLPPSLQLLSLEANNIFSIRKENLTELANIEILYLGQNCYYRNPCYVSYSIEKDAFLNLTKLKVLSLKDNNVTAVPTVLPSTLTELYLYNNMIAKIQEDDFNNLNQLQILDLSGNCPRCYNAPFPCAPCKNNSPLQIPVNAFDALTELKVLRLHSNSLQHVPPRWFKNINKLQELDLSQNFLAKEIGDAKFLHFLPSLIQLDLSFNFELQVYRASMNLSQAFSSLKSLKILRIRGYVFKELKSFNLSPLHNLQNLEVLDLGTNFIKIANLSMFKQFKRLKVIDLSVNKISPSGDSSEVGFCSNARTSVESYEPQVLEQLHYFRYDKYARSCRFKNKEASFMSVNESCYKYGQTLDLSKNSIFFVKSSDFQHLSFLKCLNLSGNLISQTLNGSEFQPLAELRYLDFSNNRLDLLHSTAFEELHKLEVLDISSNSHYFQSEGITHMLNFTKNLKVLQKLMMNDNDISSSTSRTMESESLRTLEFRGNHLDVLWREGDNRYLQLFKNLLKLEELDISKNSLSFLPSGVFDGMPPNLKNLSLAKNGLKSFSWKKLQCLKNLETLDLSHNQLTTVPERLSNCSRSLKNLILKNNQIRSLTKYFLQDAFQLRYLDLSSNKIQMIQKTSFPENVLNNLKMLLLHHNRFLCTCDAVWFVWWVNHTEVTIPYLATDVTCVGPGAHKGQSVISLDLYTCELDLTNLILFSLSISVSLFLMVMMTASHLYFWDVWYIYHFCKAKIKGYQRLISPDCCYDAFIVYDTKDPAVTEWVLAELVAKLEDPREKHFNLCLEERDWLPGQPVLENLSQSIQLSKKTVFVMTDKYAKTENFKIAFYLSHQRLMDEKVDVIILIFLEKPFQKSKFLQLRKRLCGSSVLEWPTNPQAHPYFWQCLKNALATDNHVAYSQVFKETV
Description: TLR7 inhibition reporter assay (HEK-Blue cells, SEAP reporter, gardiquimod stimulation). Type of experiment: cell-based. The following applies: HEK-Blue cells overexpressing human TLR7, gardiquimod 7.5 μM. The gist of the method: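 Cells (15000/well for TLR7, 20,000 for TLR8) were treated with compounds over 0.05 nM-50 μM final. After 22 h at 37° C, 5% CO2, SEAP was measured with HEK-Blue Detection reagent; percent inhibition was taken as reduction of agonist-plus-DMSO signal relative to a known inhibitor.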

Usually IC50 stands for the concentration needed to halve the response being measured. Higher therefore signals weaker potency.

A value given as a limit tells only on which side of the number the result lay.

In the case of `COc1ccc(-c2[nH]c3ccc(C4CCNCC4F)cc3c2C(C)C)cc1OC` (racemic) [Example 319, 2-(3,4-dimethoxyphenyl)-5-(3-fluoropiperidin-4-yl)-3-isopropyl-1H-indole], the figures for the IC50 on human TLR9 and at human TLR7 were 9110 nM and 45 nM, respectively.

For the compound `CCC(CC)NC(=O)CN1CCC(c2ccc3[nH]c(-c4ccc(OC)c(OC)c4)c(CC(F)(F)F)c3c2)CC1` [Example 378, 2-(4-(2-(3,4-dimethoxyphenyl)-3-(2,2,2-trifluoroethyl)-1H-indol-5-yl)piperidin-1-yl)-N-(pentan-3-yl)acetamide], the 50% inhibitory concentration (IC50) turned out to be 14400 nM at human TLR9 and 622 nM at human TLR7.

For `COc1ccc(-c2[nH]c3ccc(C4CCN(C(=O)C[C@H](C)O)CC4)cc3c2CC(F)(F)F)cc1OC` [Example 352, (S)-1-(4-(2-(3,4-dimethoxyphenyl)-3-(2,2,2-trifluoroethyl)-1H-indol-5-yl)piperidin-1-yl)-3-hydroxybutan-1-one], the IC50 against human TLR9 was 28900 nM; against human TLR7, 458 nM.

On to `CCNC(=O)N1CCC(c2ccc3[nH]c(-c4ccc(OC)c(OC)c4)c(CC(F)(F)F)c3c2)CC1` [Example 356, 4-(2-(3,4-dimethoxyphenyl)-3-(2,2,2-trifluoroethyl)-1H-indol-5-yl)-N-ethylpiperidine-1-carboxamide], for which the IC50 on human TLR9 was no less than 50000 nM; at human TLR7 it was 618 nM.

With `COc1ccc(-c2[nH]c3ccc(C4CCN(C(=O)CCN(C)C)CC4)cc3c2CC(F)(F)F)cc1OC` [Example 340, 1-(4-(2-(3,4-dimethoxyphenyl)-3-(2,2,2-trifluoroethyl)-1H-indol-5-yl)piperidin-1-yl)-3-(dimethylamino)propan-1-one], the figures for the IC50 against human TLR9 and on human TLR7 were 914 nM and 22 nM, respectively.

On to `COc1ccc(-c2[nH]c3ccc(C4CCN(C(=O)CCN5CCCCC5)CC4)cc3c2CC(F)(F)F)cc1OC` [Example 330, 1-(4-(2-(3,4-dimethoxyphenyl)-3-(2,2,2-trifluoroethyl)-1H-indol-5-yl)piperidin-1-yl)-3-(piperidin-1-yl)propan-1-one], for which the IC50 came out at 1610 nM against human TLR9 and 57 nM at human TLR7.

Take `COc1ccc(-c2[nH]c3ccc(C4CCN(CC(=O)N5CCC(C(N)=O)CC5)CC4)cc3c2CC(F)(F)F)cc1OC` [Example 369, 1-(2-(4-(2-(3,4-dimethoxyphenyl)-3-(2,2,2-trifluoroethyl)-1H-indol-5-yl)piperidin-1-yl)acetyl)piperidine-4-carboxamide]: the values for the concentration for half-maximal inhibition (IC50) against human TLR9 and on human TLR7 were 1950 nM and 101 nM, respectively.

As for `COc1ccc(-c2[nH]c3ccc(C4CCN(CC(=O)N5CCN(C(C)C)CC5)CC4)cc3c2CC(F)(F)F)cc1OC` [Example 362, 2-(4-(2-(3,4-dimethoxyphenyl)-3-(2,2,2-trifluoroethyl)-1H-indol-5-yl)piperidin-1-yl)-1-(4-isopropylpiperazin-1-yl)ethan-1-one], the half-maximal inhibitory concentration (IC50) on human TLR9 was determined as 1150 nM; against human TLR7 it was 65 nM.

Consider `COc1ccc(-c2[nH]c3ccc(C4CCN(C(=O)CN(C)C)CC4)cc3c2CC(F)F)cc1OC` [Example 399, 1-(4-(3-(2,2-difluoroethyl)-2-(3,4-dimethoxyphenyl)-1H-indol-5-yl)piperidin-1-yl)-2-(dimethylamino)ethan-1-one], for which the IC50 against human TLR9 came out at 2170 nM; against human TLR7, 106 nM.

As for `CCC(C)NC(=O)CN1CCC(c2ccc3[nH]c(-c4ccc(OC)c(OC)c4)c(CC(F)(F)F)c3c2)CC1` (stereo not shown) [Example 377, N-(sec-butyl)-2-(4-(2-(3,4-dimethoxyphenyl)-3-(2,2,2-trifluoroethyl)-1H-indol-5-yl)piperidin-1-yl)acetamide], the IC50 on human TLR9 stood at 8650 nM; against human TLR7 it was 233 nM.

On to `COc1ccc(-c2[nH]c3ccc(C4CCN(CC(=O)NCCS(=O)(=O)O)CC4)cc3c2CC(F)(F)F)cc1OC` [Example 386, 2-(2-(4-(2-(3,4-dimethoxyphenyl)-3-(2,2,2-trifluoroethyl)-1H-indol-5-yl)piperidin-1-yl)acetamido)ethane-1-sulfonic acid], for which the figures for the IC50 on human TLR9 and on human TLR7 were no less than 50000 nM and 557 nM, respectively.

The record behind these values is patent US11180474B2 (BRISTOL-MYERS SQUIBB COMPANY, priority 2016, dated 2021).
